Article PMC1831776, “Structure and characterization of a novel chicken biotin-binding protein A (BBP-A)” (BMC Structural Biology, 2007)
Marks after values point to notes of the source that are not given here. One block for each molecule: values may come before it.

Key:
bBBP-A [1] = molecular target: T1, bBBP-A (Gallus gallus, UniProt E1BTQ4); assay: Fluorescence spectroscopy protein-ligand dissociation analysis; assay type: binding, chicken
T1 sequence (E1BTQ4 22-146): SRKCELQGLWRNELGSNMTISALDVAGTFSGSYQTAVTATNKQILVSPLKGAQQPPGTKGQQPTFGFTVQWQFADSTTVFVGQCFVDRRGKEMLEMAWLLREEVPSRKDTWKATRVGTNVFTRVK
Experimental: Fluorescence spectroscopy was also used to measure the rate of protein-ligand dissociation. These experiments were made at 40°C in order to measure the dissociation events within an experimentally applicable timescale. […] The measured spectral properties of each protein-ligand complex (i.e. the emission intensity of the protein-ligand complex) were used to create a single-phase dissociation model, which was fitted to the data.

chicken AVD [2] = molecular target: T2, chicken AVD (Gallus gallus, UniProt P02701); assay: Isothermal titration calorimetry, AVD; assay type: binding; details: 25°C
T2 construct: AVD isolated from chicken egg-white (wtAVD; Belovo S. A., Bastogne, Belgium); purchased Belovo S. A., Bastogne, Belgium; host or cells: chicken egg-white
Experimental: (§1) The energetics of biotin binding was determined with a VP-ITC (MicroCal™) Isothermal Titration Calorimeter. Measurements were performed at 25°C in degassed 50 mM NaPO4 buffer (pH 7.0) containing 100 mM NaCl. In order to calculate the enthalpies of binding (ΔH) for BBP-A and AVD, the cell used for measurements was filled with 30 μM protein solution. […] The data were analysed with Origin 7.0 software using the "One Set of Sites" method. The titration curve (heat change μcal/injection) resulting from the 15 injections was analysed by fitting the data to a nonlinear least square curve.

bBBP-A [3] = molecular target: T1, bBBP-A; assay: Isothermal titration calorimetry, BBP-A; assay type: binding, chicken; details: for Enthalpy (ITC), BBP-A: 25°C
Experimental: as §1

chicken AVD [4] = molecular target: T2, chicken AVD; assay: DSC of AVD in the presence of ligand; assay type: binding
Experimental: (§2) Differential scanning analysis was performed in 50 mM NaPO4 buffer (pH 7.0) containing 100 mM NaCl as previously described. The concentration of the analyzed proteins was between 0.2 and 0.6 mg/ml. In samples containing a ligand, the molar ligand concentration was three times as high as the protein subunit concentration. The samples were scanned from 25 to 130°C at a rate of 0.92°C/min.

bBBP-A [5] = molecular target: T1, bBBP-A; assay: DSC of BBP-A in the presence of ligand; assay type: binding, chicken
Experimental: as §2

BBP-A = molecular target: T3, BBP-A (Gallus gallus, UniProt E1BTQ4); assay: Biotin-binding affinity of BBP-A; parameters: species or system chicken
T3 sequence (E1BTQ4 22-146): T1 sequence (E1BTQ4 22-146)
Experimental: Background The chicken genome contains a BBP-A gene showing similar characteristics to avidin family genes. In a previous study we reported that the BBP-A gene may encode a biotin-binding protein due to the high sequence similarity with chicken avidin, especially at regions encoding residues known to be located at the ligand-binding site of avidin.
(§3) The dissociation rate of [^3H]biotin from BBP-A was measured using a competitive dissociation assay (Figure 9; Table 2).

bBBP-A [6] = molecular target: T1, bBBP-A; assay: Intrinsic fluorescence emission spectra, BBP-A; assay type: binding, chicken; details: 100 nM protein, 200 nM ligand, 25°C, excitation 280 nm
Experimental: (§4) The ligand-induced changes to the emission spectra of bBBP-A and wtAVD were studied, too (Figure 11). […] Compared to the ligand-free proteins, for each of the ligand-protein combinations the maximum in the emission spectra moved towards the shorter blue wavelengths.
(§5) In order to study the intrinsic fluorescence of the proteins, the emission spectra of bBBP-A and wtAVD in 50 mM NaPO4 buffer (pH 7.0) containing 650 mM NaCl were measured using a PerkinElmer LS55 spectrofluorometer and excitation at 280 nm (slit 2.5 nm). During the analysis, protein solutions (100 nM) were continuously mixed using an integrated magnetic stirrer and maintained at 25°C using a circulating water bath.

wtAVD = molecular target: T4, wtAVD (Gallus gallus, UniProt P02701); assay: Intrinsic fluorescence emission spectra, AVD; assay type: binding, chicken; details: 100 nM protein, 200 nM ligand, 25°C, excitation 280 nm
T4 construct: AVD isolated from chicken egg-white (wtAVD; Belovo S. A., Bastogne, Belgium); purchased Belovo S. A., Bastogne, Belgium; host or cells: chicken egg-white
Experimental: as §4, §5

AVD = assay: Dissociation of BSO (fluorometric) versus BTN (radiobiotin) from AVD; assay type: binding, chicken; details: 50°C; BSO fluorometric analysis, BTN radiobiotin assay
bBBP-A [7] = molecular target: T1, bBBP-A; assay: [3H]-biotin competitive dissociation analysis (ligand from BBP-A); assay type: binding, chicken; details: 40°C, [3H]-biotin dissociation analysis, excess of BTN as competitive ligand
Experimental: as §3
The dissociation rate of [^3H]biotin (Amersham) was measured at various temperatures with a competition assay as described previously. Measurements were carried out in 50 mM NaPO4 buffer containing 100 mM NaCl.

[8] = Dissociation of fluorescent biotin conjugate ArcDia BF560-biotin from the proteins; assay type: binding; details: 25°C
Experimental: as §3
The dissociation rate of the fluorescent biotin conjugate ArcDia™ BF560-biotin (ArcDia Ltd., Turku, Finland) was measured as reported previously. The measurements were made at 25°C in 50 mM NaPO4 buffer (pH 7.0) containing 650 mM NaCl using a PerkinElmer LS55 luminometer.

[9] = Differential scanning calorimetry of the proteins; assay type: physicochemical, chicken; details: with BTN
Experimental: as §2

[10] = parameters: method as in PMID 15324300; details: ref [30], cited from earlier work; for Tr +BTN: with BTN; for Tr -BTN: without BTN
[11] = without BTN; ref [33]; cited from earlier work
[12] = molecular target: chicken biotin-binding protein A expressed in bacteria (bBBP-A) (chicken); assay: crystal structure; bBBP-A co-crystallised with BTN; two crystals, BBP-A - BTN (2.1 A, I4(1)22) and BBP-A - BSO (1.75 A, P2(1)2(1)2)
[13] = molecular target: chicken biotin-binding protein A expressed in bacteria (bBBP-A) (chicken); assay: SEC; gel filtration, Superdex 200 10/300 GL, 50 mM NaPO4, 650 mM NaCl, pH 7.0; samples without BTN and after 15 min with 0.22 mM BTN; apparent masses from standard proteins
[14] = molecular target: chicken biotin-binding protein A expressed in bacteria (bBBP-A) (chicken); assay: SDS-PAGE-based thermostability assay; samples saturated with BTN; acetylated in vitro, thermal treatment 20 min in sample buffer with SDS and 2-mercaptoethanol, Coomassie staining
[15] = molecular target: chicken biotin-binding protein A expressed in insect cells (iBBP-A) (chicken); assay: SEC; gel filtration, Superdex 200 10/300 GL, 50 mM NaPO4, 650 mM NaCl, pH 7.0; samples without BTN and after 15 min with 0.22 mM BTN; apparent masses from standard proteins
[16] = molecular target: chicken biotin-binding protein A expressed in insect cells (iBBP-A) (chicken); assay: SDS-PAGE-based thermostability assay; samples saturated with BTN; acetylated in vitro, thermal treatment 20 min in sample buffer with SDS and 2-mercaptoethanol, Coomassie staining
[17] = 40°C, fluorescence spectroscopic analysis, excess of BTN as competitive ligand

T2 sequence (P02701 25-152): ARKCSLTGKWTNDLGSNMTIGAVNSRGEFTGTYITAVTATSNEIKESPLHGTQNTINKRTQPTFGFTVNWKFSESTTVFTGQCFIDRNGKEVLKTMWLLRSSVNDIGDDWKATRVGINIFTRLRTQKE
T4 sequence (P02701 25-152): as above

Molecule: O=C(O)CCCC[C@H]1[C@H]2NC(=O)N[C@H]2C[S+]1[O-] (stereo partly drawn) [BSO, D-biotin D-sulfoxide]
kdiss from BBP-A (bBBP-A [1]; [17]): 1.3^a × 10^-4 s^-1
Enthalpy (ITC), AVD (chicken AVD [2]): -29.3 ± 0.1 kcal/mol
Enthalpy (ITC), BBP-A (bBBP-A [3]): -25.9 ± 0.1 kcal/mol
Tm (DSC), AVD (chicken AVD [4]): 116.9 ± 0.2 °C
Tm (DSC), BBP-A (bBBP-A [5]): 100.4 ± 0.2 °C
affinity of BBP-A for BSO compared with BTN (BBP-A): even higher than the affinity for BTN
ligand-induced change of emission intensity of BBP-A (bBBP-A [6]): enhanced the emission intensity
ligand-induced change of emission intensity of AVD (wtAVD): decreased the emission intensity
dissociation rate from AVD, times higher in comparison to BTN (AVD): more than 20 times

Molecule: O=C(O)CCCC[C@@H]1SC[C@@H]2NC(=O)N[C@@H]21 [BTN, D-biotin]
kdiss from BBP-A (bBBP-A [1]): 5.4^b (4.4^c) × 10^-4 s^-1
kdiss from BBP-A (bBBP-A [7]): 5.4^b (4.4^c) × 10^-4 s^-1
Enthalpy (ITC), AVD (chicken AVD [2]): -22.6 ± 0.1 kcal/mol
Kd (bBBP-A [3]): < 1 nM
Enthalpy (ITC), BBP-A (bBBP-A [3]): -20.5 ± 0.1 kcal/mol
Tm (DSC), AVD (chicken AVD [4]): 117.0 ± 0.7 °C
Tm (DSC), BBP-A (bBBP-A [5]): 103.4 ± 0.1 °C
affinity of BBP-A for biotin, times lower than that of chicken avidin (BBP-A): about 50 times
ligand-induced change of emission intensity of BBP-A (bBBP-A [6]): enhanced the emission intensity
ligand-induced change of emission intensity of AVD (wtAVD): decreased the emission intensity

Molecule: O=C(O)CCCC[C@H]1[C@H]2NC(=O)N[C@H]2CS1(=O)=O [D-biotin sulfone]
kdiss from BBP-A (bBBP-A [1]; [17]): 3.3^a × 10^-4 s^-1
Enthalpy (ITC), AVD (chicken AVD [2]): -25.1 ± 0.1 kcal/mol
Enthalpy (ITC), BBP-A (bBBP-A [3]): -21.4 ± 0.1 kcal/mol
Tm (DSC), AVD (chicken AVD [4]): 117.0 ± 0.0 °C
Tm (DSC), BBP-A (bBBP-A [5]): 101.4 ± 0.2 °C
ligand-induced change of emission intensity of BBP-A (bBBP-A [6]): enhanced the emission intensity
ligand-induced change of emission intensity of AVD (wtAVD): increased the emission intensity

Molecule: AVD: AVD isolated from chicken egg-white (Belovo S. A.), control protein
kdiss, dissociation of fluorescent BTN [8]: 2.0 10^-5 s^-1
Release 1 h, dissociation of fluorescent BTN [8]: 10%
Tm +BTN (DSC) [9]: 117.0 °C
Tr +BTN [10]: 90^b °C
Tr -BTN [10]: 60^b °C
Tm -BTN (DSC) [11]: 83.5^c °C

Molecule: bAVD: AVD produced in E. coli, control protein
kdiss, dissociation of fluorescent BTN [8]: 1.1 10^-5 s^-1
Release 1 h, dissociation of fluorescent BTN [8]: 5%
Tr +BTN [10]: 90^b °C
Tr -BTN [10]: 60^b °C

stoichiometry N [12]: 4
stoichiometry N [13]: 4
stoichiometry N [14]: 4
Molecule: chicken biotin-binding protein A expressed in bacteria (bBBP-A) (natural protein)

stoichiometry N [15]: 4
stoichiometry N [16]: 4
Molecule: chicken biotin-binding protein A expressed in insect cells (iBBP-A) (natural protein)
